Test results taken from patent US8329645B2, “Polymyxin derivatives and uses thereof” (priority 2008, dated 2012).

Legend:
[1] = test system: E. coli CCUG41421; experiment: E-test MIC with or without NAB7061 (4 μg/ml), Mueller-Hinton agar; format: cell-based, Escherichia coli
Procedure, shortened: (§1)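 Testing used commercial E-strips as directed by their maker. The minimum inhibitory concentration was determined from each strip.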

[2] = test system: E. coli CCUG41422; experiment: as above; format: cell-based, Escherichia coli
Procedure, shortened: as §1

[3] = test system: E. coli CCUG41424; experiment: as above; format: cell-based, Escherichia coli
Procedure, shortened: as §1

[4] = test system: E. coli CCUG41425; experiment: as above; format: cell-based, Escherichia coli
Procedure, shortened: as §1

[5] = test system: E. coli CCUG41427; experiment: as above; format: cell-based, Escherichia coli
Procedure, shortened: as §1

[6] = test system: E. coli CCUG41429; experiment: as above; format: cell-based, Escherichia coli
Procedure, shortened: as §1

[7] = test system: E. coli CCUG41432; experiment: as above; format: cell-based, Escherichia coli
Procedure, shortened: as §1

[8] = test system: E. coli IH3080; experiment: as above; format: cell-based, Escherichia coli
Procedure, shortened: as §1

[9] = test system: E. coli NCTC13351; experiment: as above; format: cell-based, Escherichia coli
Procedure, shortened: as §1

[10] = test system: E. coli NCTC13353; experiment: as above; format: cell-based, Escherichia coli
Procedure, shortened: as §1

[11] = test system: E. coli ATCC25922; conditions: E. coli ATCC25922
Procedure, shortened: as §1

[12] = test system: K. pneumoniae ATCC13883; conditions: K. pneumoniae ATCC13883
Procedure, shortened: as §1

[13] = test system: K. pneumoniae CCUG45421; experiment: E-test MIC with or without NAB7061 (4 μg/ml), Mueller-Hinton agar; format: cell-based, Klebsiella pneumoniae
Procedure: (§2) MICs were determined by using E-strips (Biodisk Ltd., Solna, Sweden) according to the manufacturer's instructions.
(§3) The strains originated from ATCC (11 strains), CCUG (11 strains), and NCTC (The National Collection of Type Cultures, Colindale, U.K.; 2 strains). Eight strains (the F-strains) were purchased from Mobidiag Ltd., Helsinki, Finland.

[14] = test system: K. pneumoniae F136; experiment: as above; format: cell-based, Klebsiella pneumoniae
Procedure: as §2, §3

[15] = test system: K. pneumoniae F144; experiment: as above; format: cell-based, Klebsiella pneumoniae
Procedure: as §2, §3

[16] = test system: K. pneumoniae F145; experiment: as above; format: cell-based, Klebsiella pneumoniae
Procedure: as §2, §3

[17] = test system: K. oxytoca ATCC13182; experiment: as above; format: cell-based, Klebsiella oxytoca
Procedure: as §2, §3

[18] = test system: K. oxytoca CCUG51683; experiment: as above; format: cell-based, Klebsiella oxytoca
Procedure: as §2, §3

[19] = test system: E. cloacae ATCC23355; experiment: as above; format: cell-based, Enterobacter cloacae
Procedure, shortened: as §1

[20] = test system: E. cloacae CCUG52947; experiment: as above; format: cell-based, Enterobacter cloacae
Procedure, shortened: as §1

[21] = test system: E. cloacae F230; experiment: as above; format: cell-based, Enterobacter cloacae
Procedure, shortened: as §1

[22] = test system: E. cloacae F232; experiment: as above; format: cell-based, Enterobacter cloacae
Procedure, shortened: as §1

[23] = test system: C. freundii ATCC8090; experiment: as above; format: cell-based, Citrobacter freundii
Procedure: as §2, §3

[24] = test system: Ac. baumannii ATCC19606; experiment: as above; format: cell-based, Acinetobacter baumannii; conditions: Ac. baumannii ATCC19606
Procedure: as §2, §3

[25] = test system: Ac. baumannii F263; experiment: as above; format: cell-based, Acinetobacter baumannii; conditions: Ac. baumannii F263
Procedure: as §2, §3

[26] = test system: Ac. baumannii F264; experiment: as above; format: cell-based, Acinetobacter baumannii; conditions: Ac. baumannii F264
Procedure: as §2, §3

[27] = test system: P. vulgaris ATCC13315; experiment: as above; format: cell-based
Procedure: as §2, §3

[28] = test system: S. maltophilia ATCC17444; experiment: as above; format: cell-based
Procedure: as §2, §3

[29] = test system: S. marcescens ATCC8100; experiment: as above; format: cell-based, Serratia marcescens
Procedure: as §2, §3

[30] = test system: P. mirabilis ATCC29906; experiment: as above; format: cell-based, Proteus mirabilis
Procedure: as §2, §3

[31] = test system: P. aeruginosa ATCC27853; experiment: as above; format: cell-based, Pseudomonas aeruginosa
Procedure: as §2, §3

[32] = test system: P. aeruginosa CCUG51971; experiment: as above; format: cell-based, Pseudomonas aeruginosa
Procedure: as §2, §3

[33] = test system: three strains of A. baumannii; experiment: E-test sensitization by NAB7061, summary over strains; format: cell-based; conditions: Acinetobacter baumannii, read-out: resulting MIC values in the presence of NAB7061 (4 μg/ml)
From the text: as §3

[34] = test system: A. baumannii ATCC19606; experiment: E-test MIC of antibiotics on Mueller Hinton agar containing increasing concentrations of NAB739; format: cell-based, Acinetobacter baumannii
[35] = test system: A. baumannii F264; experiment: as above; format: cell-based, Acinetobacter baumannii
[36] = test system: P. aeruginosa ATCC 27853; experiment: as above; format: cell-based, Pseudomonas aeruginosa

SMILES: CC[C@H]1OC(=O)[C@H](C)[C@@H](O[C@H]2C[C@@](C)(OC)[C@@H](O)[C@H](C)O2)[C@H](C)[C@@H](O[C@@H]2O[C@H](C)C[C@H](N(C)C)[C@H]2O)[C@](C)(OC)C[C@@H](C)C(=O)[C@H](C)[C@@H](O)[C@]1(C)O [Clarithromycin]
- MIC of antibiotic in the presence of 4 μg/ml of NAB 7061 [1]: 0.125 µg/mL
- MIC of antibiotic in the presence of 4 μg/ml of NAB 7061 [2]: 0.25 µg/mL
- MIC of antibiotic in the presence of 4 μg/ml of NAB 7061 [3]: 0.125 µg/mL
- MIC of antibiotic in the presence of 4 μg/ml of NAB 7061 [4]: 0.047 µg/mL
- MIC of antibiotic in the presence of 4 μg/ml of NAB 7061 [5]: 0.064 µg/mL
- MIC of antibiotic in the presence of 4 μg/ml of NAB 7061 [6]: 0.064 µg/mL
- MIC of antibiotic in the presence of 4 μg/ml of NAB 7061 [7]: 0.064 µg/mL
- MIC of antibiotic in the presence of 4 μg/ml of NAB 7061 [8]: 0.047 to 0.064 µg/mL
- MIC of antibiotic in the presence of 4 μg/ml of NAB 7061 [9]: 0.032 µg/mL
- MIC of antibiotic in the presence of 4 μg/ml of NAB 7061 [10]: 1 µg/mL
- MIC of antibiotic in the presence of 4 μg/ml of NAB 7061 [11]: 0.094 to 0.125 µg/mL
- MIC of antibiotic in the presence of 4 μg/ml of NAB 7061 [12]: 0.19 µg/mL
- MIC of antibiotic in the presence of 4 μg/ml of NAB 7061 [13]: 24 µg/mL
- MIC of antibiotic in the presence of 4 μg/ml of NAB 7061 [14]: 2 µg/mL
- MIC of antibiotic in the presence of 4 μg/ml of NAB 7061 [15]: 0.75 µg/mL
- MIC of antibiotic in the presence of 4 μg/ml of NAB 7061 [16]: 0.25 µg/mL
- MIC of antibiotic in the presence of 4 μg/ml of NAB 7061 [17]: 0.25 µg/mL
- MIC of antibiotic in the presence of 4 μg/ml of NAB 7061 [18]: 0.19 µg/mL
- MIC of antibiotic in the presence of 4 μg/ml of NAB 7061 [19]: 0.25 to 0.75 µg/mL
- MIC of antibiotic in the presence of 4 μg/ml of NAB 7061 [20]: 0.38 µg/mL
- MIC of antibiotic in the presence of 4 μg/ml of NAB 7061 [21]: 0.047 µg/mL
- MIC of antibiotic in the presence of 4 μg/ml of NAB 7061 [22]: 0.094 µg/mL
- MIC of antibiotic in the presence of 4 μg/ml of NAB 7061 [23]: 0.125 µg/mL
- MIC of antibiotic in the presence of 4 μg/ml of NAB 7061 [24]: 0.5 µg/mL
- MIC of antibiotic in the presence of 4 μg/ml of NAB 7061 [25]: 0.38 µg/mL
- MIC of antibiotic in the presence of 4 μg/ml of NAB 7061 [26]: 0.25 µg/mL
- MIC of antibiotic in the presence of 4 μg/ml of NAB 7061 [27]: 24 µg/mL
- MIC of antibiotic in the presence of 4 μg/ml of NAB 7061 [28]: 64 µg/mL
- MIC of antibiotic in the presence of 4 μg/ml of NAB 7061 [29]: 96 µg/mL
- MIC of antibiotic in the presence of 4 μg/ml of NAB 7061 [30]: 24 µg/mL
- MIC of antibiotic in the presence of 4 μg/ml of NAB 7061 [31]: 32 µg/mL
- MIC of antibiotic in the presence of 4 μg/ml of NAB 7061 [32]: 64 µg/mL
- MIC [33]: ≤ 0.5 µg/mL
- MIC of antibiotic in the presence of NAB739 ([34]; NAB 739 0 μg/ml): 8 µg/mL
- MIC of antibiotic in the presence of NAB739 ([34]; NAB 739 0.5 μg/ml): 0.5 µg/mL
- MIC of antibiotic in the presence of NAB739 ([34]; NAB 739 1 μg/ml): 0.094 µg/mL
- MIC of antibiotic in the presence of NAB739 ([35]; NAB 739 0 μg/ml): 6 µg/mL
- MIC of antibiotic in the presence of NAB739 ([35]; NAB 739 0.5 μg/ml): 0.5 µg/mL
- MIC of antibiotic in the presence of NAB739 ([35]; NAB 739 1 μg/ml): 0.125 µg/mL
- MIC of antibiotic in the presence of NAB739 ([36]; NAB 739 0 μg/ml): 48 µg/mL
- MIC of antibiotic in the presence of NAB739 ([36]; NAB 739 0.5 μg/ml): 16 µg/mL
- MIC of antibiotic in the presence of NAB739 ([36]; NAB 739 1 μg/ml): 12 µg/mL
- MIC of antibiotic in the presence of NAB739 ([36]; NAB 739 2 μg/ml): 3 µg/mL
- MIC of antibiotic in the presence of NAB739 ([36]; NAB 739 […]): 32 µg/mL
